Values belong to the compound of their own block, whether it stands above or below them.
Key:
[1] = test system: SK-MEL 28 cells; assay: Cell death by apoptosis, Annexin V staining, SK-MEL 28; assay type: cell-based, human; settings: 500 ng/ml
Protocol: (§1) Jurkat and SK-MEL 28 cells were incubated with the compound (I) from example 3 for 6, 24 and 48 hours, after which the percentage of apoptotic cells were determined by Annexin V staining.
(§2) The numbers depicted in the Table represent the percentage of Annexin-V positive cells.

[2] = test system: SK-Mel-28 cells; assay: Interaction with cell division, mitotic index; assay type: cell-based, human; settings: four hours (vehicle 1.7)
Protocol: The mitotic index was determined after incubation of SK-Mel-28 cells with vehicle, the compound (I) of example 3 and nocodazole for four hours [essentially as described by C. L. Rieder et al.: Current Biology 10(2000) 1067-1070].

[3] = test system: Jurkat cells; assay: Cell death by apoptosis, Annexin V staining, Jurkat; assay type: cell-based, human; settings: for percentage of Annexin-V positive cells: Jurkat, 500 ng/ml
Protocol: as §1, §2

[4] = target: T1, insulin receptor (IR) (Homo sapiens, UniProt P06213); assay: Inhibition of phosphorylation of insulin receptor (IR) in SK-MEL-28; assay type: cell-based; settings: 1 microgram/ml, 2 hours
T1 construct: endogenous in cells; host or cells: SK-MEL-28
Protocol: SK-MEL-28 cells (density 60000/cm^2) were grown in 100 mm diameter dishes containing 10 ml RPMI 1640 supplemented with 10% fetal bovine serum (FBS) for 24 hours. After 24 hours fresh medium supplemented with 10% FBS was added together with or without 1 microgram/ml of compound 33. The dishes were incubated at 37° C. for 2 hours, after which the cells were lyzed and subjected to immunoprecipitation using 2 microliter of an anti-IR monoclonal antibody (18-44, ABCAM) and 20 microliter of agarose-conjugated protein G. Antibody-antigen complexes were allowed to form for 4 hours at 4° C. and after that collected by centrifugation at 4° C. for 1 minute at 5000 rpm. Immunoprecipitated complexes were separated by electrophoresis on an 8% polyacrylamide gel and electroblotted onto a nitrocellulose membrane (Amersham Bioscience). The efficiency of the immunoprecipitation was determined by using a polyclonal antibody against the beta-subunit of the insulin receptor (C-19; Santa Cruz Biotech.). Detection of the tyrosine phosphorylation of the insulin receptor was performed by incubation of the nitrocellulose membranes with an anti-phosphotyrosine antibody (4G10, Upstate Biotechnology Ltd., UK). […]

[5] = target: T2, IGF-1R (Homo sapiens, UniProt P08069); assay: Inhibition of phosphorylation of IGF-1R in SK-MEL-28; assay type: cell-based; settings: compound 1000 ng/ml for 2 hours, IGF-1 20 ng/ml for 5 minutes; IGF-1 alone = 100
T2 construct: endogenous in cells; host or cells: SK-MEL-28
Protocol: IGF-1R: Assay without treatment with compounds (I). (Essentially as described by M. Rubini et al. Exp. Cell Res. 230(1997) 284-292).
SK-MEL-28 cells (density 60000/cm^2; 100 mm diameter dish containing 10 ml RPMI 1640) were starved for 24 hours at 37° C. and thereafter treated for 5 minutes at 37° C. with IGF-1 (200 ng, Sigma). Untreated cells served as control. The cells were lyzed and subjected to immunoprecipitation using a specific antibody against IGF-1R (alfa-IR3, Oncogene Science). Immunoprecipitates were separated by polyacrylamide gel electrophoresis and transferred to nitrocellulose membranes (Amersham Bioscience). The immunoprecipitated IGF-1 receptor was located on the nitrocellulose membrane using an antibody against the alfa-subunit of the IGF-1R (N-20:sc-712, Santa Cruz Biotech.). Detection of the tyrosine phosphorylation of the IGF-1 receptor was performed by incubation of the nitrocellulose membranes with an anti-phosphotyrosine antibody (4G10, Upstate Biotechnology Ltd., UK). To reveal the anti-IGF-1R rabbit polyclonal antibody and the anti-phosphotyrosine mouse monoclonal antibody, the membranes were incubated with anti-rabbit IgG and anti-mouse IgG antibodies coupled to HRP, respectively, and visualized by the use of an enhanced chemiluminescence (ECL) detection system (Pierce). […]

T1 sequence (P06213 28-1382): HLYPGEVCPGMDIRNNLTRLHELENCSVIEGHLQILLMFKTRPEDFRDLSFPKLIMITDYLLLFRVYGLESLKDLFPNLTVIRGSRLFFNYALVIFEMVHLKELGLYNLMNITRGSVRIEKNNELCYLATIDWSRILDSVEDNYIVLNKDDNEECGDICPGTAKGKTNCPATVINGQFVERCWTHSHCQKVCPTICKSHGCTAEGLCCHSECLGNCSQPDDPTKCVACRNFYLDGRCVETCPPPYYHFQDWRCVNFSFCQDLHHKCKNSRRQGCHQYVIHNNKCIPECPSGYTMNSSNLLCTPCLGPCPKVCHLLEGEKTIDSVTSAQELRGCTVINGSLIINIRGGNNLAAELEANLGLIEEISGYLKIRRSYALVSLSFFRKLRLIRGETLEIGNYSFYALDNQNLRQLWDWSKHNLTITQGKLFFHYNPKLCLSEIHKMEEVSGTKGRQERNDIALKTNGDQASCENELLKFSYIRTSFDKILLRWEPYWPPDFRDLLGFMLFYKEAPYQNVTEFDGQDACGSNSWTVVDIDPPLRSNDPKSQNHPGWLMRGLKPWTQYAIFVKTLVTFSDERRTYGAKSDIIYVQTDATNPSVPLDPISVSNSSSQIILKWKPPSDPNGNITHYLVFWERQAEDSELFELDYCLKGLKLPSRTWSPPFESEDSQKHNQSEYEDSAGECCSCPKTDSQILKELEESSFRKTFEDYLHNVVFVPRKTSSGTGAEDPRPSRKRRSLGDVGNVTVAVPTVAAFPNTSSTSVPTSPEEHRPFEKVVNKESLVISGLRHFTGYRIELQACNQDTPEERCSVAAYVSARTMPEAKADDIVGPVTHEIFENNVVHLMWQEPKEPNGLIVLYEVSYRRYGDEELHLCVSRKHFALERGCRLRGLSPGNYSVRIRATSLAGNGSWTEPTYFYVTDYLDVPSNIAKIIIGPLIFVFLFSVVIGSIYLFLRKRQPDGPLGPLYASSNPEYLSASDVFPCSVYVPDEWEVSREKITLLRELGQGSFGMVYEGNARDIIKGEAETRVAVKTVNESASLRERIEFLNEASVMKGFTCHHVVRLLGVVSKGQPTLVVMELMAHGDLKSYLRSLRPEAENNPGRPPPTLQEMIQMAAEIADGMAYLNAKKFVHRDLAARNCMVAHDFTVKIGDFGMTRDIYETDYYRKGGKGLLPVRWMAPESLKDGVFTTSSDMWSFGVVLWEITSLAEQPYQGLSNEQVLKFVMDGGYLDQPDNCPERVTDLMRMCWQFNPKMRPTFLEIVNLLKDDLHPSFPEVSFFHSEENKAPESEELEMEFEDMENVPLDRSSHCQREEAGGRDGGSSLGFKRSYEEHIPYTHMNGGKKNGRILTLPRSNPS
T2 sequence (P08069 31-1367): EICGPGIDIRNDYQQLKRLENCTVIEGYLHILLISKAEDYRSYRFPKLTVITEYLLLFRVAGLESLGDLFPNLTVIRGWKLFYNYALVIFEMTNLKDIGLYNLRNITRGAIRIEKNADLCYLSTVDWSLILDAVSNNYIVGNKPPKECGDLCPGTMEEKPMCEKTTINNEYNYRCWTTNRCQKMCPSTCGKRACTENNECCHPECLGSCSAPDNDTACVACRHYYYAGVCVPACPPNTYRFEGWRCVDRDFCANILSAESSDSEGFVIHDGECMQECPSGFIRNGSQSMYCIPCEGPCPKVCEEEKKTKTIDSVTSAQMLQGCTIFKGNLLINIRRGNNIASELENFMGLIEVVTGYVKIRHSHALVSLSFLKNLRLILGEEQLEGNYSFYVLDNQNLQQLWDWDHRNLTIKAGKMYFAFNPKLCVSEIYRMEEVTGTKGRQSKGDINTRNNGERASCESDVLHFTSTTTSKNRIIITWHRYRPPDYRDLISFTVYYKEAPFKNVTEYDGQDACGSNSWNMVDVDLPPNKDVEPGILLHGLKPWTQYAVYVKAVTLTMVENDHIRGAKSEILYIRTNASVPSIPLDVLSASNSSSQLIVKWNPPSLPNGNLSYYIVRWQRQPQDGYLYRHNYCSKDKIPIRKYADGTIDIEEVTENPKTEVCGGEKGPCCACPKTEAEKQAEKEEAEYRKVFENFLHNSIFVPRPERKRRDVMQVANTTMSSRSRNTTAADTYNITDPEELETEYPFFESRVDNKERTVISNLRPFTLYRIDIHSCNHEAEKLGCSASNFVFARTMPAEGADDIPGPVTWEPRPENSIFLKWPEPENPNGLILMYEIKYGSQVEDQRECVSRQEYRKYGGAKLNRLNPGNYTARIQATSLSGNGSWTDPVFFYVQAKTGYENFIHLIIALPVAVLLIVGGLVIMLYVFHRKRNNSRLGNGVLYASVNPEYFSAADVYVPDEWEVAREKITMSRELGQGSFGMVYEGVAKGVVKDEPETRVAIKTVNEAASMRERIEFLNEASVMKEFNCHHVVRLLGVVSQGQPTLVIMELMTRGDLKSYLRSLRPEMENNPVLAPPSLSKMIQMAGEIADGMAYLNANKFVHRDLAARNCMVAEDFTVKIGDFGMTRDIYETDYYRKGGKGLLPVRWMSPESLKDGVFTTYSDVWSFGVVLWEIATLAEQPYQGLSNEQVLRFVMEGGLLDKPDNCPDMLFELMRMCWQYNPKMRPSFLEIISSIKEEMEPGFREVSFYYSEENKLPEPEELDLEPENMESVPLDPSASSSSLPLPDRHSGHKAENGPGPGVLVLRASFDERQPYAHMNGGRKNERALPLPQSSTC

Compound: COc1ccc2c(c1)CCN(C(C)=O)C2c1cc(OC)c(OC)c(OC)c1 (racemic) [Example 3, 1-(3,4,5-trimethoxyphenyl)-2-acetyl-6-methoxy-1,2,3,4-tetrahydroisoquinoline]
percentage of Annexin-V positive cells ([1]; SK-Mel-28, 6 hours): 8% | percentage of Annexin-V positive cells ([1]; SK-Mel-28, 24 hours): 16% | percentage of Annexin-V positive cells ([1]; SK-Mel-28, 48 hours): 70% | mitotic index SK-Mel-28 ([2]; 300 ng/ml): 5 | percentage of Annexin-V positive cells ([3]; 6 hours): 8% | percentage of Annexin-V positive cells ([3]; 24 hours): 89% | induction of apoptosis ([3]; tested cell lines (Jurkat and SK-MEL 28), slower kinetics than SuperFasL): induces apoptosis

difference in phosphorylation of the insulin receptor versus untreated cells [4]: No difference
Compound: COc1ccc2c(c1)CCN(C#N)C2c1cc(OC)c(OC)c(OC)c1 (single isomer, unassigned; (-)) [Example 33, (−)-1-(3,4,5-trimethoxyphenyl)-2-cyano-6-methoxy-1,2,3,4-tetrahydroisoquinoline]

% phosphorylation of IGF-1R in SK-MEL-28 cells [5]: 10%
Compound: COc1ccc2c(c1)CCCN(C)C2c1cc(OC)c(OC)c(OC)c1.Cl (stereo not shown) [Example 31, 1-(3,4,5-trimethoxyphenyl)-2-methyl-7-methoxy-2,3,4,5-tetrahydro-1H-2-bezazepine hydrochloride]

Compound: COC(=O)Nc1nc2ccc(C(=O)c3cccs3)cc2[nH]1 [Nocodazole, reference compound]
mitotic index SK-Mel-28 ([2]; 10 μM): 2.9

— patent publication US7875631B2, “Tetrahydroisoquinoline-and tetrahydrobenzazepine derivatives as igf-1 r inhibitors” (Analytecon S.A., priority 2004, dated 2011)
